Test results from PubChem BioAssay AID330 (DTP/NCI, 2004).
Toxic doses and inconclusive results are not listed. How the source made its calls: active means survival T/C of 150% or more; inactive means T/C below 125% in these data.

Test system: P388 leukemia ip, CD2F1 mice, survival T/C
Experiment: NCI In Vivo Anticancer Drug Screen. Data for tumor model P388 Leukemia (intraperitoneal) in CD2F1 (CDF1) mice
Conditions: endpoint: median survival time, higher = longer survival
How it was run: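 Mice carrying the transplanted tumor received test compound or vehicle. Survival was recorded in each group, and the value is the treated-group measurement divided by that of the vehicle-treated control group.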

[1] = dose: 100.0 mg/kg/injection, schedule: Q01DX009 (ip), vehicle: saline with Tween-80
[2] = dose: 200.0 mg/kg/injection, schedule: Q01DX009 (ip), vehicle: saline with Tween-80
[3] = dose: 400.0 mg/kg/injection, schedule: Q01DX009 (ip), vehicle: saline with Tween-80
[4] = dose: 50.0 mg/kg/injection, schedule: Q01DX009 (ip), vehicle: Klucel (hydroxypropylcellulose) (HPC)
[5] = dose: 100.0 mg/kg/injection, schedule: Q01DX009 (ip), vehicle: Klucel (hydroxypropylcellulose) (HPC)
[6] = dose: 200.0 mg/kg/injection, schedule: Q01DX009 (ip), vehicle: Klucel (hydroxypropylcellulose) (HPC)
[7] = dose: 50.0 mg/kg/injection, schedule: Q01DX005 (ip), vehicle: Klucel (hydroxypropylcellulose) (HPC)
[8] = dose: 60.0 mg/kg/injection, schedule: Q01DX005 (ip), vehicle: saline with Tween-80
[9] = dose: 120.0 mg/kg/injection, schedule: Q01DX005 (ip), vehicle: saline with Tween-80
[10] = dose: 240.0 mg/kg/injection, schedule: Q01DX005 (ip), vehicle: saline with Tween-80
[11] = dose: 50.0 mg/kg/injection, schedule: Q01DX009 (ip), vehicle: saline with Tween-80
[12] = dose: 50.0 mg/kg/injection, schedule: Q01DX005 (ip), vehicle: saline with Tween-80
[13] = dose: 100.0 mg/kg/injection, schedule: Q01DX005 (ip), vehicle: saline with Tween-80
[14] = dose: 200.0 mg/kg/injection, schedule: Q01DX005 (ip), vehicle: saline with Tween-80
[15] = dose: 6.25 mg/kg/injection, schedule: Q01DX009 (ip), vehicle: water
[16] = dose: 12.5 mg/kg/injection, schedule: Q01DX009 (ip), vehicle: water
[17] = dose: 25.0 mg/kg/injection, schedule: Q01DX009 (ip), vehicle: water
[18] = dose: 50.0 mg/kg/injection, schedule: Q01DX009 (ip), vehicle: water

Measured: T/C

CN(C)C(=O)c1cccc(COc2ccc(N)cc2Cl)c1
inactive: [1] 95 % of control | [2] 90 % of control | [3] 95 % of control

C=CCSc1nc2ccc(N3C(=O)C4C5C=CC(C5)C4C3=O)cc2s1 (stereo not given)
inactive: [4] 87 % of control | [5] 92 % of control | [6] 93 % of control

C1CN(CC2CCC(CN3CCOCC3)O2)CCO1 (stereo not given)
inactive: dose: 3.12 mg/kg/injection, schedule: Q01DX005 (ip), vehicle: Klucel (hydroxypropylcellulose) (HPC) 96 % of control | dose: 6.25 mg/kg/injection, schedule: Q01DX005 (ip), vehicle: Klucel (hydroxypropylcellulose) (HPC) 97 % of control | dose: 12.5 mg/kg/injection, schedule: Q01DX005 (ip), vehicle: Klucel (hydroxypropylcellulose) (HPC) 100 % of control | dose: 25.0 mg/kg/injection, schedule: Q01DX005 (ip), vehicle: Klucel (hydroxypropylcellulose) (HPC) 114 % of control | [7] 96 % of control

CN(N=O)N1C(=O)SCC(c2ccccc2)(c2ccccc2)C1=O
inactive: dose: 60.0 mg/kg/injection, schedule: Q01DX005 (ip), vehicle: Klucel (hydroxypropylcellulose) (HPC) 97 % of control | dose: 120.0 mg/kg/injection, schedule: Q01DX005 (ip), vehicle: Klucel (hydroxypropylcellulose) (HPC) 90 % of control | dose: 240.0 mg/kg/injection, schedule: Q01DX005 (ip), vehicle: Klucel (hydroxypropylcellulose) (HPC) 88 % of control

O=C(Cn1ccc(=O)[nH]c1=O)N1CCOCC1
inactive: dose: 100.0 mg/kg/injection, schedule: Q04DX003 (ip), vehicle: water 100 % of control | dose: 200.0 mg/kg/injection, schedule: Q04DX003 (ip), vehicle: water 100 % of control | dose: 400.0 mg/kg/injection, schedule: Q04DX003 (ip), vehicle: water 100 % of control

Nc1cccnc1C1OCCO1
inactive: dose: 50.0 mg/kg/injection, schedule: Q01DX009 (ip), vehicle: other 100 % of control | dose: 100.0 mg/kg/injection, schedule: Q01DX009 (ip), vehicle: other 103 % of control

Cc1cc(=O)oc2nn(CCO)c(C)c12
inactive: [8] 105 % of control | [9] 100 % of control | [10] 91 % of control

CCCCCCCCN1CCS(=O)(=O)CC1
inactive: [4] 89 % of control | [5] 94 % of control | [6] 93 % of control

CCOC(=O)Nc1c2ccccc2c(NC(=O)OCC)c2ccccc12
inactive: dose: 50.0 mg/kg/injection, schedule: Q01DX001 (ip), vehicle: saline with Tween-80 105 % of control | dose: 100.0 mg/kg/injection, schedule: Q01DX001 (ip), vehicle: saline with Tween-80 100 % of control | dose: 200.0 mg/kg/injection, schedule: Q01DX001 (ip), vehicle: saline with Tween-80 102 % of control | dose: 400.0 mg/kg/injection, schedule: Q01DX001 (ip), vehicle: saline with Tween-80 96 % of control

Cc1cc(C)c(OC2=C(c3c(C)cc(C)cc3C)C(=O)c3ccccc32)c(C)c1
inactive: [11] 94 % of control | [1] 94 % of control | [2] 86 % of control

O=C1OC2CC13Cc1ccccc1C3(C(=O)O)CC2I (stereo not given)
inactive: [8] 104 % of control | [9] 106 % of control | [10] 100 % of control

COc1ccc(N=Nc2c(-c3ccccc3)nn(C(=S)S)c2-c2ccccc2)cc1
inactive: [12] 93 % of control | [13] 96 % of control | [14] 93 % of control

CN1C(=O)C(=N[O-])C(=O)N(C)C1=O.CN1C(=O)C(=N[O-])C(=O)N(C)C1=O.CN1C(=O)C(=N[O-])C(=O)N(C)C1=O.[Co+3]
inactive: [12] 100 % of control | [13] 119 % of control | [14] 107 % of control

CC1(C)OC(c2ccccc2)=CC1=O
inactive: dose: 100.0 mg/kg/injection, schedule: Q04DX002 (ip), vehicle: saline with Tween-80 101 % of control | dose: 200.0 mg/kg/injection, schedule: Q04DX002 (ip), vehicle: saline with Tween-80 101 % of control

CC1=CC(=O)C2(C)C1=CC(=O)C13COC4OC(CC1C4=O)C(O)C23 (stereo not given)
inactive: dose: 1.0 mg/kg/injection, schedule: Q01DX009 (ip), vehicle: Klucel (hydroxypropylcellulose) (HPC) 97 % of control | dose: 2.0 mg/kg/injection, schedule: Q01DX009 (ip), vehicle: Klucel (hydroxypropylcellulose) (HPC) 94 % of control | dose: 4.0 mg/kg/injection, schedule: Q01DX009 (ip), vehicle: Klucel (hydroxypropylcellulose) (HPC) 98 % of control | dose: 8.0 mg/kg/injection, schedule: Q01DX009 (ip), vehicle: Klucel (hydroxypropylcellulose) (HPC) 102 % of control

ClC1(c2ccccc2)c2ccc(Br)cc2-c2cc(Br)ccc21
inactive: dose: 65.0 mg/kg/injection, schedule: Q01DX009 (ip), vehicle: Klucel (hydroxypropylcellulose) (HPC) 109 % of control | dose: 100.0 mg/kg/injection, schedule: Q04DX003 (ip), vehicle: saline with Tween-80 118 % of control | [2] 109 % of control | dose: 200.0 mg/kg/injection, schedule: Q04DX003 (ip), vehicle: saline with Tween-80 122 % of control | [3] 113 % of control | dose: 400.0 mg/kg/injection, schedule: Q04DX003 (ip), vehicle: saline with Tween-80 118 % of control

O=P1(NC23CC4CC(CC(C4)C2)C3)OC(CCl)=NC1c1ccc(C2N=C(CCl)OP2(=O)NC23CC4CC(CC(C4)C2)C3)cc1 (stereo not given)
inactive: [8] 98 % of control | [9] 98 % of control | [10] 98 % of control

O=C(O)c1cccc(-c2nn[nH]n2)c1
inactive: [7] 93 % of control | dose: 100.0 mg/kg/injection, schedule: Q01DX005 (ip), vehicle: Klucel (hydroxypropylcellulose) (HPC) 90 % of control | dose: 200.0 mg/kg/injection, schedule: Q01DX005 (ip), vehicle: Klucel (hydroxypropylcellulose) (HPC) 102 % of control

CC1C(O)C(O)CC2COCC21 (stereo not given)
inactive: dose: 37.5 mg/kg/injection, schedule: Q01DX001 (ip), vehicle: saline 100 % of control | dose: 75.0 mg/kg/injection, schedule: Q01DX001 (ip), vehicle: saline 100 % of control | dose: 150.0 mg/kg/injection, schedule: Q01DX001 (ip), vehicle: saline 104 % of control

Cc1ccc2[nH]c(=S)n(CCc3ccccc3)c(=O)c2c1
inactive: [4] 99 % of control | [5] 97 % of control | [6] 97 % of control

O=S(=O)(O)c1ccc(-c2nnc(-c3ccccn3)nc2-c2ccc(S(=O)(=O)O)o2)o1
inactive: dose: 60.0 mg/kg/injection, schedule: Q01DX005 (ip), vehicle: saline 102 % of control | dose: 120.0 mg/kg/injection, schedule: Q01DX005 (ip), vehicle: saline 97 % of control | dose: 240.0 mg/kg/injection, schedule: Q01DX005 (ip), vehicle: saline 102 % of control

CCOc1cc2c(cc1C(C)(C)c1ccccc1)OCO2
inactive: [12] 99 % of control | [13] 92 % of control | [14] 96 % of control

COc1ccc(N=C=S)cc1N=C=S
inactive: dose: 6.25 mg/kg/injection, schedule: Q04DX003 (ip), vehicle: saline with Tween-80 95 % of control | dose: 12.5 mg/kg/injection, schedule: Q04DX003 (ip), vehicle: saline with Tween-80 104 % of control | dose: 25.0 mg/kg/injection, schedule: Q04DX003 (ip), vehicle: saline with Tween-80 104 % of control

O=c1oc(-c2ccccc2)cc(N2CCCCC2)c1Cl
inactive: [11] 97 % of control | [1] 97 % of control | [2] 97 % of control

OC1CCC(O)C1 (stereo not given)
inactive: dose: 50.0 mg/kg/injection, schedule: Q01DX005 (ip), vehicle: saline 100 % of control | dose: 100.0 mg/kg/injection, schedule: Q01DX005 (ip), vehicle: saline 105 % of control | dose: 200.0 mg/kg/injection, schedule: Q01DX005 (ip), vehicle: saline 98 % of control

O=C(CCNC(=O)OCc1ccccc1)NC(CSCc1ccccc1)C(=O)O (stereo not given)
inactive: [15] 100 % of control | [16] 100 % of control | [17] 95 % of control | [18] 100 % of control | dose: 100.0 mg/kg/injection, schedule: Q01DX009 (ip), vehicle: water 95 % of control

CC(=O)ON1C(=O)C2C3C=CC(O3)C2C1=O (stereo not given)
inactive: dose: 3.13 mg/kg/injection, schedule: Q01DX009 (ip), vehicle: water 103 % of control | [15] 112 % of control | [16] 100 % of control | [17] 102 % of control | [18] 93 % of control
